# Reference: patent US11053204B2, “Pyrimidinyloxy benzene derivatives as herbicides” (FMC Corporation, priority 2015, dated 2021)
# Tests used:
# Type in all cases: in vivo
# rice (Oryza sativa) = test: Test B flooded paddy test, plant response rating; settings: 250 g ai/ha; Flood; scale of 0 to 100 where 0 is no effect and 100 is complete control; 13 to 15 days
# Procedure, shortened: (§1)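 Greenhouse pots flooded to 3 cm above soil at time of treatment received compound via the water, which stayed at that level.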
# [1] = tested on: sedge, umbrella (small-flower umbrella sedge, Cyperus difformis); test: Test B flooded paddy test, plant response rating; settings: 250 g ai/ha; Flood; scale of 0 to 100 where 0 is no effect and 100 is complete control; 13 to 15 days
# Procedure, shortened: as §1
# [2] = tested on: barnyardgrass (Echinochloa crus-galli); test: Test B flooded paddy test, plant response rating; settings: 250 g ai/ha; Flood; scale of 0 to 100 where 0 is no effect and 100 is complete control; 13 to 15 days
# Procedure, shortened: as §1
# [3] = tested on: ducksalad (Heteranthera limosa); test: Test B flooded paddy test, plant response rating; settings: 250 g ai/ha; Flood; scale of 0 to 100 where 0 is no effect and 100 is complete control; 13 to 15 days
# Procedure, shortened: as §1
# [4] = tested on: ragweed (common ragweed, Ambrosia elatior); test: Test A preemergence, visual injury rating; settings: 0 to 100 scale (0 no effect, 100 complete control)
# Procedure, shortened: (§2)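 Visual 0–100 rating (100 = complete control) taken about 10 d post-treatment relative to untreated checks. Preemergence: directed soil spray on sown loam/sand pots. Postemergence: seedlings 2–10 cm, 1–2 leaf. Non-phytotoxic solvent formulation with surfactant.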
# kochia (Kochia scoparia) = test: Test A preemergence, visual injury rating; settings: 0 to 100 scale (0 no effect, 100 complete control)
# Procedure, shortened: as §2
# [5] = tested on: barnyardgrass (Echinochloa crus-galli); test: Test A preemergence, visual injury rating; settings: 0 to 100 scale (0 no effect, 100 complete control)
# Procedure, shortened: as §2
# [6] = tested on: giant foxtail (Setaria faberii); test: Test A preemergence, visual injury rating; settings: 0 to 100 scale (0 no effect, 100 complete control)
# Procedure, shortened: as §2
# [7] = tested on: pigweed (Amaranthus retroflexus); test: Test A preemergence, visual injury rating; settings: 0 to 100 scale (0 no effect, 100 complete control)
# Procedure, shortened: as §2
# [8] = tested on: Italian ryegrass (Lolium multiflorum); test: Test A preemergence, visual injury rating; settings: 0 to 100 scale (0 no effect, 100 complete control)
# Procedure, shortened: as §2
# [9] = tested on: ragweed (common ragweed, Ambrosia elatior); test: Test C preemergence, plant response rating; settings: Preemergence
# Procedure, shortened: (§3)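 Greenhouse plants rated visually against untreated controls 13–15 d after treatment, scale 0 = no effect to 100 = complete control. Postemergence sprays went onto potted plants 2–18 cm tall (1–4 leaves); preemergence sprays onto soil freshly sown in loam–sand or silt loam, chemicals formulated in non-phytotoxic solvent with surfactant.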
# [10] = tested on: crabgrass, large (large crabgrass, Digitaria sanguinalis); test: Test C preemergence, plant response rating; settings: Preemergence
# Procedure, shortened: as §3
# [11] = tested on: blackgrass (Alopecurus myosuroides); test: Test C preemergence, plant response rating; settings: Preemergence
# Procedure, shortened: as §3
# [12] = tested on: foxtail, giant (giant foxtail, Setaria faberii); test: Test C preemergence, plant response rating; settings: Preemergence
# Procedure, shortened: as §3
# soybean (Glycine max) = test: Test C preemergence, plant response rating; settings: Preemergence
# Procedure, shortened: as §3
# corn (Zea mays) = test: Test C preemergence, plant response rating; settings: Preemergence
# Procedure, shortened: as §3
# [13] = tested on: oilseed rape (Brassica napus); test: Test C preemergence, plant response rating; settings: Preemergence
# Procedure, shortened: as §3
# [14] = tested on: ryegrass, Italian (Italian ryegrass, Lolium multiflorum); test: Test C preemergence, plant response rating; settings: Preemergence
# Procedure, shortened: as §3
smiles,measurement,setting,value
CCCCC(=O)c1c(Br)cccc1Oc1ncc(Cl)cn1 [Compound 79],"Plant response rating, Rice",rice (Oryza sativa),45
same,"Plant response rating, Sedge, Umbrella",[1],100
same,"Plant response rating, Barnyardgrass",[2],60
same,"Plant response rating, Ducksalad",[3],90
same,Ragweed plant response rating,[4]; 125 g ai/ha,30
same,Ragweed plant response rating,[4]; 500 g ai/ha,90
same,Kochia plant response rating,kochia (Kochia scoparia); 125 g ai/ha,80
same,Kochia plant response rating,kochia (Kochia scoparia); 500 g ai/ha,100
same,Barnyardgrass plant response rating,[5]; 125 g ai/ha,100
same,Barnyardgrass plant response rating,[5]; 500 g ai/ha,100
same,"Foxtail, Giant plant response rating",[6]; 125 g ai/ha,100
same,"Foxtail, Giant plant response rating",[6]; 500 g ai/ha,100
same,Pigweed plant response rating,[7]; 125 g ai/ha,100
same,Pigweed plant response rating,[7]; 500 g ai/ha,100
same,"Ryegrass, Italian plant response rating",[8]; 125 g ai/ha,90
same,"Ryegrass, Italian plant response rating",[8]; 500 g ai/ha,100
same,"Plant response rating, Ragweed","[9]; 125 g ai/ha, scale of 0 to 100",30
same,"Plant response rating, Ragweed","[9]; 16 g ai/ha, scale 0 to 100",0
same,"Plant response rating, Ragweed","[9]; 31 g ai/ha, scale 0 to 100",0
same,"Plant response rating, Ragweed","[9]; 62 g ai/ha, scale 0 to 100",20
same,"Plant response rating, Crabgrass, Large","[10]; 62 g ai/ha, scale of 0 to 100",100
same,"Plant response rating, Crabgrass, Large","[10]; 125 g ai/ha, scale of 0 to 100",98
same,"Plant response rating, Crabgrass, Large","[10]; 16 g ai/ha, scale 0 to 100",65
same,"Plant response rating, Crabgrass, Large","[10]; 31 g ai/ha, scale 0 to 100",98
same,"Plant response rating, Blackgrass","[11]; 62 g ai/ha, scale of 0 to 100",75
same,"Plant response rating, Blackgrass","[11]; 125 g ai/ha, scale of 0 to 100",90
same,"Plant response rating, Blackgrass","[11]; 16 g ai/ha, scale 0 to 100",5
same,"Plant response rating, Blackgrass","[11]; 31 g ai/ha, scale 0 to 100",10
same,"Plant response rating, Foxtail, Giant","[12]; 62 g ai/ha, scale of 0 to 100",80
same,"Plant response rating, Foxtail, Giant","[12]; 125 g ai/ha, scale of 0 to 100",98
same,"Plant response rating, Foxtail, Giant","[12]; 16 g ai/ha, scale 0 to 100",40
same,"Plant response rating, Foxtail, Giant","[12]; 31 g ai/ha, scale 0 to 100",70
same,"Plant response rating, Soybean","soybean (Glycine max); 125 g ai/ha, scale of 0 to 100",5
same,"Plant response rating, Soybean","soybean (Glycine max); 16 g ai/ha, scale 0 to 100",0
same,"Plant response rating, Soybean","soybean (Glycine max); 31 g ai/ha, scale 0 to 100",0
same,"Plant response rating, Soybean","soybean (Glycine max); 62 g ai/ha, scale 0 to 100",5
same,"Plant response rating, Corn","corn (Zea mays); 62 g ai/ha, scale of 0 to 100",5
same,"Plant response rating, Corn","corn (Zea mays); 125 g ai/ha, scale of 0 to 100",30
same,"Plant response rating, Corn","corn (Zea mays); 16 g ai/ha, scale 0 to 100",0
same,"Plant response rating, Corn","corn (Zea mays); 31 g ai/ha, scale 0 to 100",0
same,"Plant response rating, Oilseed Rape","[13]; 125 g ai/ha, scale of 0 to 100",95
same,"Plant response rating, Oilseed Rape","[13]; 16 g ai/ha, scale 0 to 100",0
same,"Plant response rating, Oilseed Rape","[13]; 31 g ai/ha, scale 0 to 100",0
same,"Plant response rating, Oilseed Rape","[13]; 62 g ai/ha, scale 0 to 100",70
same,"Plant response rating, Ryegrass, Italian","[14]; 125 g ai/ha, scale of 0 to 100",35
same,"Plant response rating, Ryegrass, Italian","[14]; 16 g ai/ha, scale 0 to 100",0
same,"Plant response rating, Ryegrass, Italian","[14]; 31 g ai/ha, scale 0 to 100",10
same,"Plant response rating, Ryegrass, Italian","[14]; 62 g ai/ha, scale 0 to 100",30
CCCC(=O)c1c(Oc2ncc(Cl)cn2)cccc1C(F)(F)F [Compound 136],"Plant response rating, Rice",rice (Oryza sativa),35
same,"Plant response rating, Sedge, Umbrella",[1],80
same,"Plant response rating, Barnyardgrass",[2],45
same,"Plant response rating, Ducksalad",[3],60
same,"Plant response rating, Ragweed",[4]; 125 g ai/ha,80
same,Ragweed plant response rating,[4]; 500 g ai/ha,80
same,"Plant response rating, Kochia",kochia (Kochia scoparia); 125 g ai/ha,100
same,Kochia plant response rating,kochia (Kochia scoparia); 500 g ai/ha,100
same,"Plant response rating, Barnyardgrass",[5]; 125 g ai/ha,100
same,Barnyardgrass plant response rating,[5]; 500 g ai/ha,100
same,"Plant response rating, Foxtail, Giant",[6]; 125 g ai/ha,100
same,"Foxtail, Giant plant response rating",[6]; 500 g ai/ha,100
same,"Plant response rating, Pigweed",[7]; 125 g ai/ha,100
same,Pigweed plant response rating,[7]; 500 g ai/ha,100
same,"Plant response rating, Ryegrass, Italian",[8]; 125 g ai/ha,20
same,"Ryegrass, Italian plant response rating",[8]; 500 g ai/ha,100
same,"Plant response rating, Ragweed","[9]; 125 g ai/ha, scale of 0 to 100",40
same,"Plant response rating, Ragweed","[9]; 31 g ai/ha, scale 0 to 100",20
same,"Plant response rating, Ragweed","[9]; 62 g ai/ha, scale 0 to 100",0
same,"Plant response rating, Crabgrass, Large","[10]; 125 g ai/ha, scale of 0 to 100",100
same,"Plant response rating, Crabgrass, Large","[10]; 16 g ai/ha, scale 0 to 100",50
same,"Plant response rating, Crabgrass, Large","[10]; 31 g ai/ha, scale 0 to 100",85
same,"Plant response rating, Crabgrass, Large","[10]; 62 g ai/ha, scale 0 to 100",100
same,"Plant response rating, Blackgrass","[11]; 125 g ai/ha, scale of 0 to 100",95
same,"Plant response rating, Blackgrass","[11]; 16 g ai/ha, scale 0 to 100",0
same,"Plant response rating, Blackgrass","[11]; 31 g ai/ha, scale 0 to 100",35
same,"Plant response rating, Blackgrass","[11]; 62 g ai/ha, scale 0 to 100",60
same,"Plant response rating, Foxtail, Giant","[12]; 125 g ai/ha, scale of 0 to 100",100
same,"Plant response rating, Foxtail, Giant","[12]; 31 g ai/ha, scale 0 to 100",65
same,"Plant response rating, Foxtail, Giant","[12]; 62 g ai/ha, scale 0 to 100",70
same,"Plant response rating, Soybean","soybean (Glycine max); 125 g ai/ha, scale of 0 to 100",40
same,"Plant response rating, Soybean","soybean (Glycine max); 31 g ai/ha, scale 0 to 100",0
same,"Plant response rating, Soybean","soybean (Glycine max); 62 g ai/ha, scale 0 to 100",15
same,"Plant response rating, Corn","corn (Zea mays); 125 g ai/ha, scale of 0 to 100",5
same,"Plant response rating, Corn","corn (Zea mays); 16 g ai/ha, scale 0 to 100",0
same,"Plant response rating, Corn","corn (Zea mays); 31 g ai/ha, scale 0 to 100",0
same,"Plant response rating, Corn","corn (Zea mays); 62 g ai/ha, scale 0 to 100",5
same,"Plant response rating, Oilseed Rape","[13]; 125 g ai/ha, scale of 0 to 100",98
same,"Plant response rating, Oilseed Rape","[13]; 31 g ai/ha, scale 0 to 100",5
same,"Plant response rating, Oilseed Rape","[13]; 62 g ai/ha, scale 0 to 100",70
same,"Plant response rating, Ryegrass, Italian","[14]; 125 g ai/ha, scale of 0 to 100",65
same,"Plant response rating, Ryegrass, Italian","[14]; 31 g ai/ha, scale 0 to 100",30
same,"Plant response rating, Ryegrass, Italian","[14]; 62 g ai/ha, scale 0 to 100",35
